Experimental data published in patent US20260328779A1, “METHODS AND COMPOSITIONS FOR THE DIAGNOSIS AND TREATMENT OF IGA NEPHROPATHY” (Beth Israel Deaconess Medical Center, Inc., priority 2022, published 2026).

Key:
anti-Tn IgM = experiment: Inhibition of anti-Tn antibody binding to Tn glycopeptide array; set-up: species or system human; settings: glycomimetic 20 mM, 30 min at RT, anti-Tn antibodies C3
Method: The Tn glycopeptide microarray was prepared as previously described^77. Briefly, the glycopeptides printed on the microarray is as listed (FIG. 2). Purified anti-Tn antibodies (diluted to […] for IgM, and […] for IgG and IgA detection) in TSM binding buffer (20 mM Tris-HCl, pH 7.4, 150 mM NaCl, 2 mM CaCl2), 2 mM MgCl2, with 1% BSA and 0.05% Tween-20) were added to the respective array slides for 1 h at RT. Alexa Fluor #488-labeled goat anti-human IgM or goat anti-human IgG, or FITC-labeled goat anti-human IgA antibody at 1:400 dilution in TSM binding buffer was used for detection of IgM, IgG, and IgA within purified anti-Tn antibodies. Slides were analyzed on a Genepix^# 4300A microarray scanner (Molecular Devices). Images were analyzed with quantitation software (GenePix® Pro Microarray Analysis Software Ver. 7, Molecular Devices). For inhibition assay, a purified Tn(+)IgA1 produced from CosmcKO Dakiki cells was utilized (See Generation of CosmcKO Dakiki cells using CRISPR-Cas9 system for generating the antibody) to inhibit anti-Tn antibodies binding to microarray and Tn(−)IgA1 produced from Dakiki cells as a […]. Purified anti-Tn antibodies (Cl, 10 mg/ml) in TSM binding buffer was preincubated with 1 mg of purified Tn(+)IgA1, or Tn(−)IgA1 for 30 min at RT. […] Heat map and correlation map of binding preferences were analyzed using GLAD (Glycan Array Dashboard).

anti-Tn CICs = experiment: ELISA based glycomimetic inhibition assay (anti-Tn CICs binding to IgA1 glycopeptide); set-up: species or system human; settings: ID18 with ID19 as baseline, serial dilution (1/3) starting at 10 mM
Method: IgA1 glycopeptides (ID18, or ID19 as listed in FIG. 2, 0.01 mg/well) were immobilized using immobilization buffer (NaHCO3/Na2CO3, pH 9.6) in a 96-well plate (Thermo Fisher Scientific, PolySorp) overnight at 4° C. The plate was washed 3× with TSM containing 0.05% tween-20 (TSMT) and added 5% (w/v) BSA in TSMT for 1 h at RT. The plate was incubated with 1 mg/ml of purified anti-Tn CICs from IgAN serum (P3, and pooled with P1-P10; Pmix) or healthy donors (C3, and pooled C1-C10; Cmix) in TSMT containing 0.5% BSA for 1 h at RT. The plate was washed 3× with TSMT and incubated for 1 h with HRP-conjugated goat anti-human IgM at 1:1,000 dilution in TSMT containing 0.5% BSA at RT. The plate was washed 3× with TSMT and developed using TMB substrate solution (Cat #ab171523, Abcam) for 30 min, and the reaction was stopped with 1N HCl. Absorbance (450 nm) was read on an ImageXpress #Pico (Molecular Devices). The half-maximal inhibitory concentration (IC50) was calculated with GraphPad Prism 6.0 (GraphPad Software, Inc.) after subtraction from ID19 as a baseline. For inhibition assay, purified anti-Tn CICs were preincubated with a serial dilution (1/3) of α-methylGalNAc or DiαGalNAc (starting at 10 mM) for 30 min at RT.

[1] = tested on: primary human renal mesangial cells; experiment: Inhibition of anti-Tn CICs-stimulated mesangial cell proliferation (Ki-67); format: cell-based; settings: anti-Tn CICs purified from IgAN patients pretreated with 100 mM compound, 30 min at RT
Method: […] of serum was mixed with […] of Tn(+)matrix beads or mock beads overnight at 4° C. (10 rpm). Supernatant was collected after pelleting the beads at 500×g for 30 sec at 4° C. After two rounds of such sequential anti-Tn CICs immunodepletion (serum-ID) and its control (serum-Mock), collected serum was filtered by syringe filter unit (Cat #SLHP033RS, Millipore Sigma) before use. Cells were cultured at ~90% confluency in 96-well plate, and starved in Mesangial cell media (Cat #4201) with 0.5% FBS (Cat #0010) and 0.05× mesangial cell growth supplement (MsCGS, Cat #4252) from ScienCell for 24 h at 37° C. prior to stimulation. Cells were stimulated with 5% serum-Mock, 5% serum-ID with or without exogenous anti-Tn CICs (50 ng/[…]/well, total) for 24 h at 37° C. incubator. Cells were fixed with 4% PFA with 0.05% Triton-X-100 in PBS for 20 min at 4° C. Fixed cells were blocked with 5% (vol/vol) goat serum in PBS for 1 h at 4° C., and incubated with anti-Ki-67 antibody (SP6, rabbit IgG, Cat #CRM325B, Biocare Medical, diluted to 1:50) in PBS for 1 h at 4° C. Cells were washed 3× with chilled PBS, and incubated with Alexa Fluor #488-goat anti-rabbit IgG (Cat #A27034, Thermo Fisher Scientific) at 1:400 in PBS for 1 h at 4° C. in the dark. Cells were washed 3× with chilled PBS, and stained with DAPI (diluted to 0.1 mM) in PBS for 10 min at RT, and analyzed using a microscope (AMG EVOS FL digital inverted microscope, Fisher Scientific, ×400 magnification). For inhibition assay, anti-Tn CICs was preincubated with 100 mM α-methylGalNAc, or α-methylGlcNAc in PBS for 30 min at RT. Serum from three healthy controls (C3, C6, and pooled C1-C10; Cmix) and three IgAN (P5, P10, and pooled P1-P10; Pmix) were used in this assay. […] of serum with IgAN (P1-P20) or healthy control (C1-C20) was analyzed on SDS-PAGE gel, and stained with Coomassie.

## CC(=O)N[C@H]1[C@@H](OCCSCCO[C@H]2O[C@H](CO)[C@H](O)[C@H](O)[C@H]2NC(C)=O)O[C@H](CO)[C@H](O)[C@@H]1O [DiαGalNAc, α-D-2-Ethylthio 2-acetamido-galactopyranosyl α-D-2-Ethylthio 2-acetamido-galactopyranoside]
anti-Tn IgM
  inhibition of anti-Tn antibody (IgM) binding to Tn glycopeptide array: higher inhibition compared to α-methylGalNAc
anti-Tn CICs
  inhibition of anti-Tn CICs binding to IgA1 glycopeptide: A higher inhibition of anti-Tn CICs binding
anti-Tn CICs; listed as Di αGalNAc
  inhibition of anti-Tn CICs binding to IgA1 glycopeptide: specifically inhibits the binding of anti-Tn CICs to IgA1 glycopeptide

## CO[C@H]1O[C@H](CO)[C@@H](O)[C@H](O)[C@H]1NC(C)=O [α-methylGlcNAc, reference compound]
[1]
  inhibition of proliferative activity of anti-Tn CICs from IgAN patients toward mesangial cells: did not inhibit the mesangial cell proliferation
